Experimental data from patent US8008506B2, “Indazole compounds” (priority 2008, dated 2011).
≈ marks a conversion by molar mass, not a printed value.

Key:
[1] = biological target: T1, human β3 adrenergic receptor (Homo sapiens, UniProt P13945); experiment: Test Example 1-A: human β3 adrenergic receptor agonist activity (cAMP EIA, transfected CHO cells, 24-well); format: cell-based; details: Table 1; for EC50: Test Example 1-A; for β3 receptor I.A.: maximum response to isoproterenol taken as 100%
T1 construct: the full length human β3 gene is obtained from a human genomic library; expressed in transfected cells; host or cells: CHO (Chinese Hamster Ovary) cells, pcDNA3, geneticin selection
Description: Measurement of Human β3 Adrenergic Receptor Agonist Activity
(§1) The measurement of human β3 adrenergic receptor agonist activity is carried out using CHO (Chinese Hamster Ovary) cells transfected with pcDNA3 (manufactured by Invitrogen, Inc.) to which human β3 gene has been inserted. […] This human β3 cDNA fragment is used as a probe, and the full length human β3 gene is obtained from a human genomic library (manufactured by Clontech Laboratories, Inc.). The above cells are cultured in Ham's F-12 medium containing 10% fetal bovine serum and 400 μg/ml geneticin (manufactured by Invitrogen, Inc.). These cells are seeded on a 24-well plate to a concentration of 1×10^5 cells/well, and after being cultured for about 20 hours, the cells are left to stand in serum-free Ham's F-12 medium for 2 hours. A test compound is initially dissolved in DMSO, and then is diluted stepwise with Ham's F-12 containing 20 mmol/L HEPES, 1 mmol/L isobutylmethylxanthine, and 1 mmol/L ascorbic acid. The dilution is added to the cells. After the cells are cultured for 30 minutes, and then the medium is removed, followed by addition of 0.1 ml of 1 N NaOH to the cells. The cells are left to stand for 20 minutes, and then are added with 0.1 ml of 1 N acetic acid and are stirred. The resulting cell lysate is centrifuged, and then is subjected to quantification of cAMP with cAMP EIA kit (manufactured by Cayman Chemical Co.).

[2] = Test Example 10: saturation solubility in pure water; format: physicochemical; details: thermodynamic from solid, room temperature, shaken one hour
Description: Saturation Solubility in Pure Water
A test compound is prepared in pure water to be in the saturated state. This solution is shaken for one hour at room temperature. After the shaking, the entire amount of the solution is transferred into a filter tube, and the solution is filtered by centrifugation. The filtrate is analyzed by HPLC, and the saturation solubility of the test compound is determined using a calibration curve, based on the peak area value.
A standard solution is prepared by precisely weighing each test compound, and preparing a solution that sufficiently dissolves in pure water. The calibration curve is produced by assigning the concentration of the standard solution to the horizontal axis, and assigning the HPLC area peak at the concentration to the vertical axis.
YMC-Pack C18 (4.6 mm×150 mm) (manufactured by YMC Co., Ltd.) is used as a separating column. The detection is performed with UV-254 nm. Elution is carried out at a flow rate of 1 ml/min, using solution A=water [containing 0.1% (v/v) acetic acid] and solution B=acetonitrile as the solvents, under the conditions in which a linear gradient of the solution B is run from 5 to 98% (v/v) from zero minute to 20 minute, subsequently solution B is eluted at 98% up to 25 minute, and the solution B is eluted at 5% from 25.01 minute to 35 minute.

[3] = biological target: T2, human β2 adrenergic receptor (Homo sapiens, UniProt P07550); experiment: Test Example 3-A: human β2 adrenergic receptor agonist activity (method of Test Example 1-A); format: cell-based; details: Table 1; for β2 receptor EC50: Test Example 3-A; for β2 receptor I.A.: maximum response to isoproterenol taken as 100%
T2 construct: expressed in transfected cells; host or cells: CHO (Chinese Hamster Ovary) cells, pcDNA3
Description: [Worded in the source for another target; this target is reported under the same test.] as §1, with “Co.). […] Measurement of Human β2 Adrenergic Receptor Agonist Activity” for “Co.).”

[4] = biological target: T3, human β1 adrenergic receptor (Homo sapiens, UniProt P08588); experiment: Test Example 2-A: human β1 adrenergic receptor agonist activity (method of Test Example 1-A); format: cell-based; details: Table 1; for β1 receptor EC50: Test Example 2-A; for β1 receptor I.A.: maximum response to isoproterenol taken as 100%
T3 construct: expressed in transfected cells; host or cells: CHO (Chinese Hamster Ovary) cells, pcDNA3
Description: as §1, with “Co.). […] Measurement of Human β1 Adrenergic Receptor Agonist Activity” for “Co.).”

T2 sequence (P07550 whole entry): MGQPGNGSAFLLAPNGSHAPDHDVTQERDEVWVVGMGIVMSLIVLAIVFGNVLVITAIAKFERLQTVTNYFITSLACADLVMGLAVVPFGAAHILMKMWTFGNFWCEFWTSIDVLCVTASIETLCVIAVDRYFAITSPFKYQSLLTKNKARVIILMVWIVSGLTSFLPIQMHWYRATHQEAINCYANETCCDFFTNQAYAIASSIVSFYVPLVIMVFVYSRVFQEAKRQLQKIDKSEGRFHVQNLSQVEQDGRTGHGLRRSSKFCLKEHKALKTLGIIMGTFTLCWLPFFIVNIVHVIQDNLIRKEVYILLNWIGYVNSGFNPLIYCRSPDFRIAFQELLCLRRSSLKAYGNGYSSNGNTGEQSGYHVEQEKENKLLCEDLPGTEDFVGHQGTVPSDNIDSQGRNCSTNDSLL
T1 sequence (P13945 whole entry): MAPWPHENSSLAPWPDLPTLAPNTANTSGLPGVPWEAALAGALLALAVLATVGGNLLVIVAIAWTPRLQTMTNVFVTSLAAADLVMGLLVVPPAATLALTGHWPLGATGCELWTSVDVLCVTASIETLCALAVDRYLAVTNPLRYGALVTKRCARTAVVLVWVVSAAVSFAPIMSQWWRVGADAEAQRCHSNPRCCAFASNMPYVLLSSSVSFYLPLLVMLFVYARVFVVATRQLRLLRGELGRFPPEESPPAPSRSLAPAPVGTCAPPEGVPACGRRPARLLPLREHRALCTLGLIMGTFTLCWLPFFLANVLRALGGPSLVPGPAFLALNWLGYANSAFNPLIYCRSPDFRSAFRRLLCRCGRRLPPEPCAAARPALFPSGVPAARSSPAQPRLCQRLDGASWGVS
T3 sequence (P08588 whole entry): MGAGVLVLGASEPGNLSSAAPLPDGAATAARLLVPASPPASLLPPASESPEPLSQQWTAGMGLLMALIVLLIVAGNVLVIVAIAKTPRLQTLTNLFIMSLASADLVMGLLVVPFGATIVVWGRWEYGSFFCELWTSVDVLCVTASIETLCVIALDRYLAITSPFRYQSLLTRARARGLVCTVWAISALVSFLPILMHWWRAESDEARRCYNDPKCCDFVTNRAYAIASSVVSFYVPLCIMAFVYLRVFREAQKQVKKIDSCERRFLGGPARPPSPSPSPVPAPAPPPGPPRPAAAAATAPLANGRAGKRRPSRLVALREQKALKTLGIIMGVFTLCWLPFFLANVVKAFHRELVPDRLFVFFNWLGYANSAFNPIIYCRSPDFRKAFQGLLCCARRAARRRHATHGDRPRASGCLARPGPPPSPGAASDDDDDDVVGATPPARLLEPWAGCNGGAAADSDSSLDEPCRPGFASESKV

| Compound | EC50 [1] [nM] | β3 receptor I.A. [1] [%] | solubility at 1 h [2] [mg/mL] | β2 receptor EC50 [3] | β2 receptor I.A. [3] [%] | β1 receptor EC50 [4] | β1 receptor I.A. [4] [%] |
| --- | --- | --- | --- | --- | --- | --- | --- |
| CCCc1n[nH]c2cc(OCCNC[C@H](O)c3cccc(NS(C)(=O)=O)c3)ccc12 [Example 3, (R)-N-(3-(1-hydroxy-2-(2-(3-propylindazol-6-yloxy)ethylamino)ethyl)phenyl)methanesulfonamide] | 29 | 77 | 50 (≈ 116 mM) |  |  |  |  |
| CCc1n[nH]c2cc(OCCNC[C@H](O)c3cccc(NS(C)(=O)=O)c3)ccc12 [Example 2, (R)-N-(3-(1-hydroxy-2-(2-(3-ethylindazol-6-yloxy)ethylamino)ethyl)phenyl)methanesulfonamide] | 29 | 77 | 204 (≈ 487 mM) | a) | 3.0 | a) | 8.1 |
| COCc1n[nH]c2cc(OCCNC[C@H](O)c3cccc(NS(C)(=O)=O)c3)ccc12 [Example 6, (R)-N-(3-(1-hydroxy-2-(2-(3-methoxymethylindazol-6-yloxy)ethylamino)ethyl)phenyl)methanesulfonamide] | 7.4 | 82 |  | a) | 7.6 | a) | 3.3 |
| CS(=O)(=O)Nc1cccc([C@@H](O)CNCCOc2ccc3c(C(F)(F)F)n[nH]c3c2)c1 [Example 4, (R)-N-(3-(1-hydroxy-2-(2-(3-trifluoromethylindazol-6-yloxy)ethylamino)ethyl)phenyl)methanesulfonamide] |  |  | 71 (≈ 155 mM) |  |  |  |  |
| CN(C)C(=O)CCc1n[nH]c2cc(OCCNC[C@H](O)c3cccc(NS(C)(=O)=O)c3)ccc12 [Example 5, (R)-3-(6-(2-(2-hydroxy-2-(3-(methylsulfonamido)phenyl)ethylamino)ethoxy)-indazol-3-yl)-N,N-dimethylpropanamide] | 51 | 75 | 491 (≈ 1000 mM) | a) | 3.2 | a) | 3.3 |
